# Measured values from patent US20180298024A1, “CORTISTATIN ANALOGS AND USES THEREOF” (President and Fellows of Harvard College, priority 2015, published 2018).
# Where “and” joins values, the source holds several entries; their conditions need not be identical. Identical values can stand only once. Like-named read-outs stand apart in the source and are kept apart here.
# How the values were obtained:
# [1] = TurboSol solubility evaluation in physiological saline; type: physicochemical; details: HB-PS+0.3% DMSO
# [2] = Pharmacokinetic profile in mice (plasma, LC-MS/MS); details: for Vd / clearance / AUC(0-inf) / Cmax / Tmax / bioavailability / concentration at 24 h: CD-1, mouse, plasma; for Vd / clearance: iv, 3 mg/kg; for AUC(0-inf) / Cmax / Tmax / bioavailability / concentration at 24 h: po; for ½ life: CD-1 mice
# Procedure: Formulation correction for salt content was not required for this study. Materials were vortexed and sonicated at room temperature following addition of vehicle. The solutions were maintained at ambient temperature stirring in the dark for at least 30 minutes prior to dose administration. The formulations were then vortexed and sonicated briefly to help ensure solubility.
# Mice were selected from the Testing Facility's rodent colony. The animals were enrolled in the study based on acceptable health as determined by Testing Facility personnel on the day of test article administration. Animals were held in environmental acclimation for at least 48 hours (±6 hours) prior to dosing. Animals were maintained at temperatures between 16-26° C. (62-78° F.) with the humidity range between 30-70%. Animals in all groups were fasted overnight and food was returned 4 hours following dosing. Water was provided ad libitum throughout the study.
# Whole blood samples for plasma were either collected from each animal by either direct vein puncture of the submandibular vein (survival blood collection) or by cardiac puncture following euthanasia with CO2 (terminal blood collection). […] Following collection, whole blood was placed into a tube containing K2EDTA and immediately placed on wet ice until processed for plasma. Whole blood samples were centrifuged at 2200×g for 10 minutes in a refrigerated centrifuge (5±3° C.) to isolate plasma. The samples were transferred to individual polypropylene containers and immediately placed on dry ice before storage at −70±10° C. until analysis. Plasma collected from undosed spare animals was pooled and analyzed as well.
# Once collected the mouse plasma studies were quantitated using LCMS/MS spectroscopy to determine the concentration of compound. […] Eight calibration standards containing the analyte and internal standard imipramine were prepared and analyzed at the beginning and at the end of the sequence. A calibration curve was generated and sample concentrations calculated using the Quantitation software MassHunter.
# MV4; 11 = assay: Half-maximal growth inhibition (GI50), MV4; 11; type: cell-based; details: Homo sapiens, 240 h, AML, M5, MLL-AF4, read-out: GI50 (nM), day 10
# Procedure: (§1) Compounds A, B, C, D, and F were tested against various cell lines to probe their broad utility against cancer. Cortistatin A (CA) was also tested against the cell lines in a head to head fashion.
# CDK8/Cyclin C = target: T1, CDK8/Cyclin C (Homo sapiens, UniProt P49336); assay: 33PanQinase radiometric kinase assay, CDK8/Cyclin C; type: biochemical; details: read-out: percent inhibition of CDK8/Cyclin C
# T1 construct: purchased ProQinase; host or cells: Sf9 insect cells or E. coli
# T1 sequence (P49336 whole entry): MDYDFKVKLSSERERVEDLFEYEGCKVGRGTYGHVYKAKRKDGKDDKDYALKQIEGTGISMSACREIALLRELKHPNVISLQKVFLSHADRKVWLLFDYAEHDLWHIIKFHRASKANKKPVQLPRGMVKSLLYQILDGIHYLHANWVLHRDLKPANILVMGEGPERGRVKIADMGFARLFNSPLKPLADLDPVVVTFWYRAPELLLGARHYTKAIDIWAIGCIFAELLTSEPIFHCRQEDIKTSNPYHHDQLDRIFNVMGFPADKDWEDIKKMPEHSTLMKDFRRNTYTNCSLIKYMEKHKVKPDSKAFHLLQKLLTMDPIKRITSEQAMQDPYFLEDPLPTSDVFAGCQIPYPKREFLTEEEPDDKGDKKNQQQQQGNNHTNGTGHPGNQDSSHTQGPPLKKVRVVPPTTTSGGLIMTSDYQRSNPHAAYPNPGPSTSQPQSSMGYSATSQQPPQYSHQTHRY
# T1 sequence (P24863 whole entry partner): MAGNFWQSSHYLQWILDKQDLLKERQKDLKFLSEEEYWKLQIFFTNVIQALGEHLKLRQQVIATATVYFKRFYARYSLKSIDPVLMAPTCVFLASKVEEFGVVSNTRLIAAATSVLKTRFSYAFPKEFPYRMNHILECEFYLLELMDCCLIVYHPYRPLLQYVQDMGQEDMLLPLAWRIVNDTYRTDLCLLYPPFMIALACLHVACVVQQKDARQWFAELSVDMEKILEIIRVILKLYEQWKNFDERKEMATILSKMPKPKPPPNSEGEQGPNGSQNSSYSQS
# Procedure: A radiometric protein kinase assay (33PanQinase Activity Assay) was used for measuring the kinase activity of the 320 protein kinases. All kinase assays were performed in 96-well FlashPlates™ from Perkin Elmer (Boston, Mass., USA) in a 50 μl reaction volume. The reaction cocktail was pipetted in 4 steps in the following order: • 1. 10 μl of non-radioactive ATP solution (in H2O) • 2. 25 μl of assay buffer/[γ-33P]-ATP mixture • 3. 5 μl of test sample in 10% DMSO • 4. 10 μl of enzyme/substrate mixture
# All PKC assays (except the PKC-mu and the PKC-nu assay) additionally contained 1 mM CaCl2, 4 mM EDTA, 5 μg/ml phosphatidylserine and 1 μg/ml 1,2-dioleyl-glycerol.
# The CAMKID, CAMK2A, CAMK2B, CAMK2D, CAMK4, CAMKK1, CAMKK2, DAPK2, EEF2K, MYLK, MYLK2 and MYLK3 assays additionally contained 1 μg/ml Calmodulin and 0.5 mM CaCl2). The PRKG1 and PRKG2 assays additionally contained 1 μM cGMP. The DNA-PK assay additionally contained 2.5 μg/ml DNA. The protein kinase reaction cocktails were incubated at 30° C. for 60 minutes. The reaction was stopped with 50 μl of 2% (v/v) H3PO4, plates were aspirated and washed two times with 200 μl 0.9% (w/v) NaCl. Incorporation of 33Pi (counting of “cpm”) was determined with a microplate scintillation counter (Microbeta, Wallac). All protein kinase assays were performed with a BeckmanCoulter Biomek 2000/SL robotic system.
# All protein kinases provided by ProQinase were expressed in Sf9 insect cells or in E. coli as recombinant GST-fusion proteins or His-tagged proteins, either as full-length or enzymatically active fragments. All kinases were produced from human cDNAs and purified by either GSHaffinity chromatography or immobilized metal. Affinity tags were removed from a number of kinases during purification. The purity of the protein kinases was examined by SDSPAGE/Coomassie staining, the identity was checked by mass spectroscopy.
# For each kinase, the median value of the cpm of three wells was defined as “low control” (n=3). This value reflects unspecific binding of radioactivity to the plate in the absence of a protein kinase but in the presence of the substrate. Additionally, for each kinase the median value of the cpm of three other wells was taken as the “high control”, i.e. full activity in the absence of any inhibitor (n=3). The difference between high and low control of each enzyme was taken as 100% activity. As part of the data evaluation the low control of each kinase was subtracted from the high control value as well as from their corresponding “compounds values”. The residual activity (in %) for each compounds well was calculated by using the following formula:
# Res. Activity (%)=100×[(signal of compounds−low control)/(high control−low control)]
# [3] = tested on: Human AML cell line MV4;11; assay: MV4;11 disseminated leukemia model (bioluminescence); type: in vivo, NSG mice; details: for Fold increase in leukemia burden 15 days after 1st dose / in vivo anti-leukemic efficacy (bioluminescence, words): NSG mice; for in vivo anti-leukemic efficacy (bioluminescence, words): compounds dosed at their highest tolerable dose; for Efficacy Rank Day 15: each compound at its own dose/schedule, data from 3 separate studies
# Procedure: The in vivo anti-leukemic activity of Compounds A, B, C, D, and F was tested at the indicated doses and treatment schedules. The doses were chosen based on the compounds tolerability profile (i.e. CA was dosed at 0.16 mg/kg because higher doses caused weight loss or other tolerability issues outlined in Example 6). Human AML cell line MV4;11 expressing mCherry and luciferase were injected into NSG mice. Upon measurement of leukemia cell engraftment, treatment was initiated. Body weight and bioluminescence were measured. It has previously been shown (Shair, Nature 2015) that bioluminescence corresponds to leukemia burden. […] Moreover there was no appreciable advantage between IV or PO dosing observed.
# SKNO-1 = assay: Half-maximal growth inhibition (GI50), SKNO-1; type: cell-based; details: Homo sapiens, 240 h, AML, M2, RUNX1-RUNX1T1, read-out: GI50 (nM), day 10
# Procedure: as §1
# HEL = assay: Half-maximal growth inhibition (GI50), HEL; type: cell-based; details: Homo sapiens, 240 h, AML, erythroleukemia, JAK2V617F, read-out: GI50 (nM), day 10
# Procedure: as §1
# hERG potassium channel = hERG potassium channel (Homo sapiens, UniProt Q12809); assay: in vitro; details: human
# Sequence of hERG potassium channel (Q12809 whole entry): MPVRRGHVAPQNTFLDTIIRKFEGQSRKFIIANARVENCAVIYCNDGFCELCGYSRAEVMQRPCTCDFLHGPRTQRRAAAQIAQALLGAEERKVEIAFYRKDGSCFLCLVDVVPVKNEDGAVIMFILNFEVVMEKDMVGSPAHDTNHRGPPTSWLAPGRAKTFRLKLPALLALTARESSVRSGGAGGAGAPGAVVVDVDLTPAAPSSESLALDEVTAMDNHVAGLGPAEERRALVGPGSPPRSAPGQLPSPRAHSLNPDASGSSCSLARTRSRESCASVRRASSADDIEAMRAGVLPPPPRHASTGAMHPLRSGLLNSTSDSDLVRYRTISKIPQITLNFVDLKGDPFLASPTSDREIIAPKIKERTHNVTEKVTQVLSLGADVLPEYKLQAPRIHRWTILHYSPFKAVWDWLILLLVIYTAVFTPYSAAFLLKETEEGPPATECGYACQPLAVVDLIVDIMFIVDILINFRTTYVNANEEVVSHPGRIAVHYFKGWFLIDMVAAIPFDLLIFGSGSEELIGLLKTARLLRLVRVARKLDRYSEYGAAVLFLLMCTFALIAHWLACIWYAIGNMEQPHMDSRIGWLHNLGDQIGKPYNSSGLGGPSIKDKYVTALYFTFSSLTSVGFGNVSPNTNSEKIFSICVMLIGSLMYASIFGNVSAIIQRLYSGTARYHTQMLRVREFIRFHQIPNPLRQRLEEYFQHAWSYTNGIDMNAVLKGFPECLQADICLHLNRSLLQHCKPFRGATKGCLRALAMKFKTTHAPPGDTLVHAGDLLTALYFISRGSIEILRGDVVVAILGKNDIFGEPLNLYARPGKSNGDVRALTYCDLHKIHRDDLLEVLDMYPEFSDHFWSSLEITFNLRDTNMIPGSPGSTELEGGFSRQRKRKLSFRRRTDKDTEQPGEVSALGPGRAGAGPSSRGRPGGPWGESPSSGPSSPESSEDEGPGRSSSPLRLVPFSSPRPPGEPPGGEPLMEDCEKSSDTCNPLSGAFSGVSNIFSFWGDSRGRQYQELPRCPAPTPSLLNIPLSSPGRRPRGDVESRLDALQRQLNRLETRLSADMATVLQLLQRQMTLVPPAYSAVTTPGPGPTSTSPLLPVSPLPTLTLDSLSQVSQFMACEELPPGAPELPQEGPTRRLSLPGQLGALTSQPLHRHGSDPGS
# Procedure: (§2) The in vitro effects of compounds A, B, C, D, E, and F on the hERG (human ether-à-go-go-related gene) potassium channel current (a surrogate for IKr, the rapidly activating, delayed rectifier cardiac potassium current) expressed in mammalian cells were evaluated at room temperature using the QPatch HT (Sophion Bioscience A/S, Denmark), an automatic parallel patch clamp system. The test articles were evaluated at 1 μM, 3 μM, […] and 30 μM. Each test article concentration was tested in at least three cells. The duration of exposure to each test article concentration was a minimum of 3 minutes.
# [4] = target: hERG (human ether-à-go-go-related gene) potassium channel (Homo sapiens, UniProt Q12809); assay: cell-based; details: for IC50: hERG IC50, QPatch HT, room temperature
# Sequence of hERG (human ether-à-go-go-related gene) potassium channel (Q12809 whole entry): as above
# Procedure: as §2
# CDK8 = CDK8 (Homo sapiens, UniProt P49336); assay: CDK8 IC50 determination (Example 9); type: biochemical
# Sequence of CDK8 (P49336 whole entry): as the sequence (P49336 whole entry) above
# Sequence of CDK8 (P24863 whole entry partner): as the sequence (P24863 whole entry partner) above
# [5] = Individual Data Points (% Inhibition), hERG
# [6] = read-out: IC50 (nM) against CDK8, average
# [7] = tested in duplicate, read-out: IC50 against CDK8, single determinations
SMILES,Average LSU (×1000) ([1]; 1 μM),Average LSU (×1000) ([1]; 3 μM),Average LSU (×1000) ([1]; 10 μM),Average LSU (×1000) ([1]; 30 μM),solubility in the TurboSol assay [1],Vd [2],clearance [2],AUC(0-inf) ([2]; 10 mg/kg),Cmax ([2]; 10 mg/kg),Tmax ([2]; 10 mg/kg),bioavailability ([2]; 10 mg/kg),concentration at 24 h ([2]; 10 mg/kg),½ life ([2]; IV 3 mg/kg),½ life ([2]; PO 10 mg/kg),GI50 (MV4; 11),inhibition at 1 µM (CDK8/Cyclin C),"in vivo anti-leukemic efficacy (bioluminescence, words) [3]",Efficacy Rank Day 15 [3],GI50 (SKNO-1),GI50 (HEL),other results
"C[C@]12CC=C3C=C4CC[C@@H](O)C[C@]45CC[C@]3(O5)[C@@H]1CC[C@@H]2c1ccc2ccncc2c1 [Compound A, (3S,3aR,9R,10aR,12aS,12bR)-3-(isoquinolin-7-yl)-3a-methyl-1,2,3,3a,4,7,8,9,10,11,12,12b-dodecahydro-10a,12a-epoxybenzo[4,5]cyclohepta[1,2-e]inden-9-ol]",5.8 LSU (×1000),5.1 LSU (×1000),9.0 LSU (×1000),41.0 LSU (×1000),slightly insoluble at concentrations of 10 μM and 30 μM,1.12 L/kg,18.4 mL/min/kg,3970 ng·h/mL,3870 nM,0.5 h,43.9%,1.8 nM,4.08 h,3.04 h,1.5 nM,> 50%,similarly efficacious to Compound F,5,2 nM,> 1000 nM,"AUC(0-inf) ([2]; male, 20 mg/kg): 7940 ng·h/mL; Fold increase in leukemia burden 15 days after 1st dose ([3]; 20 mpk PO Q5Dx2): 10.4 fold; inhibition at 10 µM (hERG potassium channel; [5]): 17.6%; inhibition at 1 µM (hERG potassium channel; Mean % hERG Inhibition): 4%; inhibition at 3 µM (hERG potassium channel; Mean % hERG Inhibition): 9%; inhibition at 10 µM (hERG potassium channel; Mean % hERG Inhibition): 19.6%; inhibition at 30 µM (hERG potassium channel; Mean % hERG Inhibition): 43.7%; IC50 [4]: > 30000 nM; Mean % hERG Inhibition ([4]; human, 3 µM): 9.2%; IC50 (CDK8; [6]): 9.9 nM; IC50 (CDK8; [7]): 10.6 nM and 9.3 nM"
C[C@]12CC=C3C=C4CC[C@@H](N5CC[C@@H](N)C5)C[C@]45CC[C@]3(O5)[C@@H]1CC[C@@H]2c1ccc2ccncc2c1 [Compound B],2.2 LSU (×1000),3.2 LSU (×1000),4.5 LSU (×1000),8.6 LSU (×1000),slightly insoluble at 30 μM concentrations,26.6 L/kg,31 mL/min/kg,1060 ng·h/mL,218 nM,2 h,19.8%,26.4 nM,18.7 h,9.55 h,4 nM,> 50%,superior in vivo efficacy as compared to Compound F,3,3 nM,> 1000 nM,"AUC(0-inf) ([2]; male, 10 mg/kg): 1060 ng·h/mL; Fold increase in leukemia burden 15 days after 1st dose ([3]; 10 mpk PO 7 on/2off/6on): 5.2 fold; inhibition at 1 µM (hERG potassium channel; [5]): 5.4%; inhibition at 3 µM (hERG potassium channel; [5]): 17.1%; inhibition at 30 µM (hERG potassium channel; [5]): 89.4%; inhibition at 1 µM (hERG potassium channel; Mean % hERG Inhibition): 4.1%; inhibition at 3 µM (hERG potassium channel; Mean % hERG Inhibition): 18.9%; inhibition at 10 µM (hERG potassium channel; Mean % hERG Inhibition): 44.5%; inhibition at 30 µM (hERG potassium channel; Mean % hERG Inhibition): 82.7%; IC50 [4]: 10700 nM; fold less hERG activity than Compound E ([4]; human): 10-100 fold; IC50 (CDK8; [6]): 9.1 nM; IC50 (CDK8; [7]): 5.5 nM and 12.7 nM"
C[C@]12CC=C3C=C4CC[C@@H](N5CC(N)C5)C[C@]45CC[C@]3(O5)[C@@H]1CC[C@@H]2c1ccc2ccncc2c1 [Compound C],2.8 LSU (×1000),3.5 LSU (×1000),4.9 LSU (×1000),13.0 LSU (×1000),slightly insoluble at 30 μM concentrations,26.4 L/kg,23.7 mL/min/kg,2970 ng·h/mL,462 nM,8 h,42.3%,82.5 nM,14.7 h,6.68 h,2 nM,> 50%,superior in vivo efficacy as compared to Compound F,2,3 nM,> 1000 nM,"AUC(0-inf) ([2]; male, 5 mg/kg): 1480 ng·h/mL; Fold increase in leukemia burden 15 days after 1st dose ([3]; 5 mpk PO 7on/4off/4on): 2.2 fold; inhibition at 3 µM (hERG potassium channel; [5]): 12.7%; inhibition at 10 µM (hERG potassium channel; [5]): 45.8%; inhibition at 30 µM (hERG potassium channel; [5]): 66.9%; inhibition at 1 µM (hERG potassium channel; Mean % hERG Inhibition): 5.8%; inhibition at 3 µM (hERG potassium channel; Mean % hERG Inhibition): 17.1%; inhibition at 10 µM (hERG potassium channel; Mean % hERG Inhibition): 49.8%; inhibition at 30 µM (hERG potassium channel; Mean % hERG Inhibition): 75.5%; IC50 [4]: 10900 nM; IC50 (CDK8; [6]): 9.5 nM; IC50 (CDK8; [7]): 8.9 nM and 10.2 nM"
